Experimental data taken from patent US9498467B2, “Treatment of chronic neutrophilic leukemia (CNL) and atypical chronic myeloid leukemia (aCML) by inhibitors of JAK1” (Incyte Corporation, priority 2014, dated 2016).

Key:
[1] = target: T1, human JAK2 (a.a. 828-1132) (Homo sapiens, UniProt O60674); assay: In vitro JAK kinase assay (HTRF), JAK2; assay type: biochemical; conditions: ratio of IC50s at 1 mM ATP
T1 construct: JAK2 (a.a. 828-1132); made in house; host or cells: insect cells (baculovirus)
T1 sequence (O60674 828-1132): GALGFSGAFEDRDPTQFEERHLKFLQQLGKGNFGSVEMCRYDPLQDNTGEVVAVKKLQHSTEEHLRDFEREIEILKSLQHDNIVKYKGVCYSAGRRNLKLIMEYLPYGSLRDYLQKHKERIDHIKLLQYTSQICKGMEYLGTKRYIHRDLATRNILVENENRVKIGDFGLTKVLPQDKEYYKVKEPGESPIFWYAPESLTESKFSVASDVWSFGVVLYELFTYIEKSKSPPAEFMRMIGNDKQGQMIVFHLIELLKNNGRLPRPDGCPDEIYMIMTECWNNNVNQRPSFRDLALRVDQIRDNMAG

[2] = target: T2, human JAK1 (a.a. 837-1142) (Homo sapiens, UniProt P23458); assay: In vitro JAK kinase assay (HTRF), JAK1; assay type: biochemical; conditions: 1 mM ATP
T2 construct: human JAK1 (a.a. 837-1142); made in house; host or cells: insect cells (baculovirus)
T2 sequence (P23458 849-1154): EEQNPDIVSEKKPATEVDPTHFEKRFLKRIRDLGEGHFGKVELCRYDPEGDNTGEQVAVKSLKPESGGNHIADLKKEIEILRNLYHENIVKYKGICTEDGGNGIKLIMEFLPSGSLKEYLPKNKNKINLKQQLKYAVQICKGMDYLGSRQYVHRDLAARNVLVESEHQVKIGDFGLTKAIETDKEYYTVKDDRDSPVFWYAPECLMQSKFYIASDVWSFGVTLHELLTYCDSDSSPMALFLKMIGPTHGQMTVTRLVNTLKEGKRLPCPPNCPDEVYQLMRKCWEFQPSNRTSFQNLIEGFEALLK

[3] = tested on: GCSF induced pSTAT3 in human neutrophils; assay: JAK human neutrophil assay (pSTAT3 ELISA); conditions: 0.25 h, read-out: IC50 (inhibition of pSTAT3)

JAK2/JAK1 [1] | IC50 [2] | IC50 [3] | SMILES
>10 | < 10 nM | – | N#CC[C@]1(n2cc(-c3ncnc4[nH]ccc34)cn2)C[C@H](N2CCC(Oc3cc(CCO)cc(C(F)(F)F)n3)CC2)C1 [Compound 26, {trans-3-(4-{[4-(2-hydroxyethyl)-6-(trifluoromethyl)pyridin-2-yl]oxy}piperidin-1-yl)-1-[4-(7H-pyrrolo[2,3-d]pyrimidin-4-yl)-1H-pyrazol-1-yl]cyclobutyl} acetonitrile]
>10 | < 10 nM | – | N#CC[C@]1(n2cc(-c3ncnc4[nH]ccc34)cn2)C[C@H](N2CCC(Oc3cc(CN4CC(O)C4)cc(C(F)(F)F)n3)CC2)C1 [Compound 11, {trans-3-(4-{[4-[(3-hydroxyazetidin-1-yl)methyl]-6-(trifluoromethyl)pyridin-2-yl]oxy}piperidin-1-yl)-1-[4-(7H-pyrrolo[2,3-d]pyrimidin-4-yl)-1H-pyrazol-1-yl]cyclobutyl} acetonitrile]
>10 | < 10 nM | – | N#CC[C@]1(n2cc(-c3ncnc4[nH]ccc34)cn2)C[C@H](N2CCN(C(=O)c3ccnc(C(F)(F)F)n3)CC2)C1 [Compound 10, [trans-1-[4-(7H-pyrrolo[2,3-d]pyrimidin-4-yl)-1H-pyrazol-1-yl]-3-(4-{[2-(trifluoromethyl)pyrimidin-4-yl]carbonyl}piperazin-1-yl)cyclobutyl] acetonitrile]
>10 | < 10 nM | – | N#CCC(C1CCN(c2nc3cccnc3o2)C1)n1cc(-c2ncnc3[nH]ccc23)cn1 (centres unmarked) [Compound 4, 3-(1-[1,3]oxazolo[5,4-b]pyridin-2-ylpyrrolidin-3-yl)-3-[4-(7H-pyrrolo[2,3-d]pyrimidin-4-yl)-1H-pyrazol-1-yl]propanenitrile]
>10 | < 10 nM | – | N#CCC(C1CCN(c2cccc(Cl)n2)C1)n1cc(-c2ncnc3[nH]ccc23)cn1 (single isomer, unassigned) [Compound 3, 3-[1-(6-chloropyridin-2-yl)pyrrolidin-3-yl]-3-[4-(7H-pyrrolo[2,3-d]pyrimidin-4-yl)-1H-pyrazol-1-yl]propanenitrile]
>10 | < 10 nM | – | CC(C)(O)c1cc(O[C@H]2CC[C@@H](N3CC(CC#N)(n4cc(-c5ncnc6[nH]ccc56)cn4)C3)CC2)nc(C(F)(F)F)c1 [Compound 20, {1-(cis-4-{[4-(1-hydroxy-1-methylethyl)-6-(trifluoromethyl)pyridin-2-yl]oxy}cyclohexyl)-3-[4-(7H-pyrrolo[2,3-d]pyrimidin-4-yl)-1H-pyrazol-1-yl]azetidin-3-yl}acetonitrile]
>10 | < 10 nM | – | N#CCC1(n2cc(-c3ncnc4[nH]ccc34)cn2)CN([C@H]2CC[C@@H](Oc3cc(CCO)nc(C(F)(F)F)n3)CC2)C1 [Compound 18, {1-(cis-4-{[6-(2-hydroxyethyl)-2-(trifluoromethyl)pyrimidin-4-yl]oxy}cyclohexyl)-3-[4-(7H-pyrrolo[2,3-d]pyrimidin-4-yl)-1H-pyrazol-1-yl]azetidin-3-yl}acetonitrile]
>10 | < 100 nM | < 100 nM | C[C@@H](O)c1nc2cnc3ccsc3c2n1[C@H]1CC[C@H](CC#N)OC1 [Compound 1, ((2R,5S)-5-{2-[(1R)-1-hydroxyethyl]-1H-imidazo[4,5-d]thieno[3,2-b]pyridin-1-yl}tetrahydro-2H-pyran-2-yl)acetonitrile]
>10 | < 10 nM | – | N#CCC1(n2cc(-c3ncnc4[nH]ccc34)cn2)CN([C@H]2CC[C@@H](Oc3cc(CN4CC[C@H](O)C4)cc(C(F)(F)F)n3)CC2)C1 [Compound 22, {1-(cis-4-{[4-{[(3S)-3-hydroxypyrrolidin-1-yl]methyl}-6-(trifluoromethyl)pyridin-2-yl]oxy}cyclohexyl)-3-[4-(7H-pyrrolo[2,3-d]pyrimidin-4-yl)-1H-pyrazol-1-yl]azetidin-3-yl}acetonitrile]
>10 | < 10 nM | – | N#CCC(CN1CCN(C(=O)c2ccc(C#N)cc2F)CC1)n1cc(-c2ncnc3[nH]ccc23)cn1 (centres unmarked) [Compound 5]
>10 | < 10 nM | – | N#CCC1(n2cc(-c3ncnc4[nH]ccc34)cn2)CN(C2CCN(C(=O)Nc3ccc(F)cc3C(F)(F)F)CC2)C1 [Compound 8, 4-{3-(Cyanomethyl)-3-[4-(7H-pyrrolo[2,3-d]pyrimidin-4-yl)-1H-pyrazol-1-yl]azetidin-1-yl}-N-[4-fluoro-2-(trifluoromethyl)phenyl] piperidine-1-carboxamide]
>10 | < 10 nM | – | C[C@H](NC(=O)c1cc(F)c(N2CC(CC#N)(n3cc(-c4ncnc5[nH]ccc45)cn3)C2)cc1F)C(F)(F)F [Compound 16, 4-{3-(cyanomethyl)-3-[4-(7H-pyrrolo[2,3-d]pyrimidin-4-yl)-1H-pyrazol-1-yl]azetidin-1-yl}-2,5-difluoro-N-[(1S)-2,2,2-trifluoro-1-methylethyl]benzamide]
>10 | < 10 nM | – | C[C@@H](CO)NCc1cc(OC2CCN([C@H]3C[C@](CC#N)(n4cc(-c5ncnc6[nH]ccc56)cn4)C3)CC2)nc(C(F)(F)F)c1 [Compound 23, {trans-3-(4-{[4-({[(1S)-2-hydroxy-1-methylethyl]amino}methyl)-6-(trifluoromethyl)pyridin-2-yl]oxy}piperidin-1-yl)-1-[4-(7H-pyrrolo[2,3-d]pyrimidin-4-yl)-1H-pyrazol-1-yl]cyclobutyl} acetonitrile]
>10 | < 10 nM | – | N#CCC(CN1CCN(C(=O)c2ccc(C#N)cc2F)CC1)n1ccc(-c2ncnc3[nH]ccc23)c1 (centres unmarked) [Compound 6, 4-[(4-{3-cyano-2-[3-(7H-pyrrolo[2,3-d]pyrimidin-4-yl)-1H-pyrrol-1-yl]propyl}piperazin-1-yl)carbonyl]-3-fluorobenzonitrile]
>10 | < 10 nM | – | N#CC[C@]1(n2cc(-c3ncnc4[nH]ccc34)cn2)C[C@H](N2CCC(Oc3cc(CN4CCC[C@@H]4CO)cc(C(F)(F)F)n3)CC2)C1 [Compound 13, {trans-3-(4-{[4-{[(2R)-2-(hydroxymethyl)pyrrolidin-1-yl]methyl}-6-(trifluoromethyl)pyridin-2-yl]oxy}piperidin-1-yl)-1-[4-(7H-pyrrolo[2,3-d]pyrimidin-4-yl)-1H-pyrazol-1-yl]cyclobutyl} acetonitrile]
>10 | < 10 nM | – | CCNCc1cc(O[C@H]2CC[C@@H](N3CC(CC#N)(n4cc(-c5ncnc6[nH]ccc56)cn4)C3)CC2)nc(C(F)(F)F)c1 [Compound 19, {1-(cis-4-{[4-[(ethylamino)methyl]-6-(trifluoromethyl)pyridin-2-yl]oxy}cyclohexyl)-3-[4-(7H-pyrrolo[2,3-d]pyrimidin-4-yl)-1H-pyrazol-1-yl]azetidin-3-yl}acetonitrile]
>10 | < 10 nM | – | C[C@H](O)CNCc1cc(OC2CCN([C@H]3C[C@](CC#N)(n4cc(-c5ncnc6[nH]ccc56)cn4)C3)CC2)nc(C(F)(F)F)c1 [Compound 25, {trans-3-(4-{[4-({[(2S)-2-hydroxypropyl]amino}methyl)-6-(trifluoromethyl)pyridin-2-yl]oxy}piperidin-1-yl)-1-[4-(7H-pyrrolo[2,3-d]pyrimidin-4-yl)-1H-pyrazol-1-yl]cyclobutyl} acetonitrile]
>10 | < 10 nM | – | N#CCC1(n2cc(-c3ncnc4[nH]ccc34)cn2)CN(C2CCN(C(=O)c3ccnc(C(F)(F)F)n3)CC2)C1 [Compound 9, [3-[4-(7H-pyrrolo[2,3-d]pyrimidin-4-yl)-1H-pyrazol-1-yl]-1-(1-{[2-(trifluoromethyl)pyrimidin-4-yl]carbonyl}piperidin-4-yl)azetidin-3-yl]acetonitrile]
– | – | < 100 nM | Cc1n[nH]c(C)c1-c1cnn(C2(CC#N)CN(c3cc(F)c(C(=O)N[C@@H](C)C(F)(F)F)cc3F)C2)c1 [Compound 2, 4-[3-(cyanomethyl)-3-(3′,5′-dimethyl-1H,1′H-4,4′-bipyrazol-1-yl)azetidin-1-yl]-2,5-difluoro-N-[(1S)-2,2,2-trifluoro-1-methylethyl]benzamide]
>10 | < 10 nM | – | N#CC[C@]1(n2cc(-c3ncnc4[nH]ccc34)cn2)C[C@H](N2CCC(Oc3cc(CN4CCC[C@H]4CO)cc(C(F)(F)F)n3)CC2)C1 [Compound 12, {trans-3-(4-{[4-{[(2S)-2-(hydroxymethyl)pyrrolidin-1-yl]methyl}-6-(trifluoromethyl)pyridin-2-yl]oxy}piperidin-1-yl)-1-[4-(7H-pyrrolo[2,3-d]pyrimidin-4-yl)-1H-pyrazol-1-yl]cyclobutyl} acetonitrile]
>10 | < 10 nM | – | C[C@@H](O)CNCc1cc(OC2CCN([C@H]3C[C@](CC#N)(n4cc(-c5ncnc6[nH]ccc56)cn4)C3)CC2)nc(C(F)(F)F)c1 [Compound 24, {trans-3-(4-{[4-({[(2R)-2-hydroxypropyl]amino}methyl)-6-(trifluoromethyl)pyridin-2-yl]oxy}piperidin-1-yl)-1-[4-(7H-pyrrolo[2,3-d]pyrimidin-4-yl)-1H-pyrazol-1-yl]cyclobutyl} acetonitrile]
>10 | < 10 nM | < 100 nM | N#CCC1(n2cc(-c3ncnc4[nH]ccc34)cn2)CN(C2CCN(C(=O)c3ccnc(C(F)(F)F)c3F)CC2)C1 [Compound 7, {1-{1-[3-Fluoro-2-(trifluoromethyl)iso-nicotinoyl]piperidin-4-yl}-3-[4-(7H-pyrrolo[2,3-d]pyrimidin-4-yl)-1H-pyrazol-1-yl]azetidin-3-yl}acetonitrile]
>10 | < 10 nM | – | N#CCC1(n2cc(-c3ncnc4[nH]ccc34)cn2)CN([C@H]2CC[C@@H](Oc3cc(CN4CC[C@@H](O)C4)cc(C(F)(F)F)n3)CC2)C1 [Compound 21, {1-(cis-4-{[4-{[(3R)-3-hydroxypyrrolidin-1-yl]methyl}-6-(trifluoromethyl)pyridin-2-yl]oxy}cyclohexyl)-3-[4-(7H-pyrrolo[2,3-d]pyrimidin-4-yl)-1H-pyrazol-1-yl]azetidin-3-yl}acetonitrile]
